Results from patent US20090062251A1, “Novel Compounds 002” (ASTRAZENECA AB, priority 2007, published 2009).

Assays:
[1] = target: T1, Human CB1 receptor (hCB1) (Homo sapiens, UniProt P21554); experiment: hCB1 GTPγS binding; assay type: biochemical; conditions: for EC50: hCB1 membranes, GTPγ35S, 10-point dose-response; for Emax: maximal stimulated binding determined with 10 μM Win 55,212-2
T1 construct: purchased Receptor Biology
How it was run: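 Human CB1 membranes in 50 mM Hepes, 100 mM NaCl, 1 mM EDTA, 5 mM MgCl2, 0.1% BSA, pH 7.4 were preincubated 5 min with GDP (30 μM final). Basal and maximal binding were defined without or with 10 μM Win 55,212-2; incubation 60 min RT; filter-bound radioactivity counted. Antagonist reversal used fixed antagonist with agonist curve, or fixed agonist with antagonist curve.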

[2] = target: T1, Human CB1 receptor (hCB1); experiment: hCB1 receptor binding (3H-CP55,940 displacement); conditions: hCB1 membranes, Ki=IC50/(1+[rad]/Kd)
How it was run: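 Human CB1 membranes in Tris buffer pH 7.4 with 2.5 mM EDTA, 5 mM MgCl2 and 0.5 mg/mL fatty-acid-free BSA, incubated 60 min at room temperature with [3H]CP55,940.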

T1 sequence (P21554 whole entry): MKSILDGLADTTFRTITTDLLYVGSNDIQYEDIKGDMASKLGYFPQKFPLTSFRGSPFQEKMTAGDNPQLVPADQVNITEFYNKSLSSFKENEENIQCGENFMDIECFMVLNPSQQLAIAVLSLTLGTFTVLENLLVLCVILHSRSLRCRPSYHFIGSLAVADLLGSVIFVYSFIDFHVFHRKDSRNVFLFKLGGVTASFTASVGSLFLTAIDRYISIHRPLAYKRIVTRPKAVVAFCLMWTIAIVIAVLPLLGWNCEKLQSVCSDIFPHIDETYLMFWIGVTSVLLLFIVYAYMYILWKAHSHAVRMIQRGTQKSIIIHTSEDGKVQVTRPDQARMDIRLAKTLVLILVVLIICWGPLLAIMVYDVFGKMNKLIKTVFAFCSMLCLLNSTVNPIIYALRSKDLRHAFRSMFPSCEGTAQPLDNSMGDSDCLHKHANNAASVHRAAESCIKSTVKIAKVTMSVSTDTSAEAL

Which results are given for CC1CCN(C(=O)c2ccc3c(c2)c2c(n3S(C)(=O)=O)CCC(C3CCCCC3)C2)CC1 (stereo not drawn) [(6-cyclohexyl-9-methylsulfonyl-5,6,7,8-tetrahydrocarbazol-3-yl)-(4-methyl-1-piperidyl)methanone]?
EC50 [1]: 0.277 µM; Emax [1]: 89%; Ki [2]: 0.0753 µM

Which results are given for CC(C)C(=O)NC1CCCN(C(=O)c2ccc3c(c2)c2c(n3C)CCC(C3CCOCC3)C2)C1 (stereo not drawn) [2-methyl-N-[1-[9-methyl-6-(oxan-4-yl)5,6,7,8-tetrahydrocarbazole-3-carbonyl]-3-piperidyl]propanamide]?
EC50 [1]: 0.401 µM; Emax [1]: 118%; Ki [2]: 0.157 µM

What does the source list for CCN(CCCC(=O)NC1CC1)C(=O)c1ccc2c(c1)c1c(n2C)CCC(C2CCOCC2)C1 (stereo not drawn) [N-[3-(cyclopropylcarbamoyl)propyl]-N-ethyl-9-methyl-6-(oxan-4-yl)-5,6,7,8-tetrahydrocarbazole-3-carboxamide]?
EC50 [1]: 0.0049 µM; Emax [1]: 116%; Ki [2]: 0.0028 µM

Which results are given for CCNC(=O)CN(CC)C(=O)c1ccc2c(c1)c1c(n2CC2CC2)CCC(C2CCOCC2)C1 (stereo not drawn) [9-(cyclopropylmethyl)-N-ethyl-N-(ethylcarbamoylmethyl)-6-(oxan-4-yl)-5,6,7,8-tetrahydrocarbazole-3-carboxamide]?
EC50 [1]: 0.157 µM; Emax [1]: 90%; Ki [2]: 0.0652 µM

Which results are given for CCN(CC(=O)NC(C)C)C(=O)c1ccc2c(c1)c1c(n2C2CCC2)CCC(C2CCOCC2)C1 (stereo not drawn) [9-cyclobutyl-N-ethyl-6-(oxan-4-yl)-N-(propan-2-ylcarbamoylmethyl)-5,6,7,8-tetrahydrocarbazole-3-carboxamide]?
EC50 [1]: 0.293 µM; Emax [1]: 70%; Ki [2]: 0.152 µM

What does the source list for CCN(CC(=O)NCCC#N)C(=O)c1ccc2c(c1)c1c(n2S(=O)(=O)CC)CCC(C2CCOCC2)C1 (stereo not drawn) [N-(2-cyanoethylcarbamoylmethyl)-N-ethyl-9-ethylsulfonyl-6-(oxan-4-yl)-5,6,7,8-tetrahydrocarbazole-3-carboxamide]?
EC50 [1]: 0.12 µM; Emax [1]: 115%; Ki [2]: 0.115 µM
